Experimental data from patent US20050043381A1, “Aminopyrazole compounds” (AGOURON PHARMACEUTICALS, INC., priority 2003, published 2005).

Legend:
[1] = molecular target: T1, full-length human CHK1 (FL-CHK1) (Homo sapiens, UniProt O14757); assay: FL-CHK1 assay (coupled spectrophotometric, Syntide-2); format: biochemical; conditions: FL-CHK1, 0.15 mM ATP
T1 construct: C-terminally His-tagged full-length human CHK1 (FL-CHK1); 6xHis (C); made in house
T1 sequence (O14757 1-476): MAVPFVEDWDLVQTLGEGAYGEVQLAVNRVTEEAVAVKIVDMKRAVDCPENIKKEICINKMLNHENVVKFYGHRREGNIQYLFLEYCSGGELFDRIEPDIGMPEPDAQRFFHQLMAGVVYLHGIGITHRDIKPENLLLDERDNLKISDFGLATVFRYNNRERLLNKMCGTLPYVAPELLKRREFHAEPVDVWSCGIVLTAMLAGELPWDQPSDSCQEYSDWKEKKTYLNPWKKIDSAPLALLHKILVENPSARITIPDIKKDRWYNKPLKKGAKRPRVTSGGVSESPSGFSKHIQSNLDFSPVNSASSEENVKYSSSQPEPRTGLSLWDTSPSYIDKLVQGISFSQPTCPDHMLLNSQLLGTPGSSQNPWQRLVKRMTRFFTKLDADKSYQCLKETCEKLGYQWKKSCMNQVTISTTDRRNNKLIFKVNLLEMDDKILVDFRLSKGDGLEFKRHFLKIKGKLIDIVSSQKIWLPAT
Text: C-terminally His-tagged full-length human CHK1 (FL-CHK1) was expressed using the baculovirus/insect cell system. It contains 6 histidine residues (6 x His-tag) at the C-terminus of the 476 amino acid human CHK1. The protein was purified by conventional chromatographic techniques.
The production of ADP from ATP that accompanies phosphoryl transfer to the synthetic substrate peptide Syntide-2 (PLARTLSVAGLPGKK) was coupled to oxidation of NADH using phosphoenolpyruvate (PEP) through the actions of pyruvate kinase (PK) and lactic dehydrogenase (LDH). The oxidation of NADH was monitored by following the decrease of absorbance at 340 nm (ε340=6.22 cm^−1 mM^−1) using a HP8452 spectrophotometer. Typical reaction solutions contained: […] PEP; 0.15 mM NADH; 28 units of LDH/mL; 16 units of PK/mL; 3 mM DTT; 0.125 mM Syntide-2; 0.15 mM ATP; 25 mM MgCl2 in 50 mM TRIS, pH 7.5; and 400 mM NaCl. Assays were initiated with 10 nM of FL-CHK1. Ki values were determined by measuring initial enzyme activity in the presence of varying concentrations of test compounds. The data were analyzed using Enzyme Kinetic and Kaleidagraph software. […]

[2] = tested on: CA-46 (lymphoma) cells; assay: Whole cell checkpoint abrogation assay (CHK1 Mitotic Index ELISA); format: cell-based; conditions: for EC50: concentration causing 50% abrogation of the checkpoint, camptothecin + Nocodazole
Procedure: To examine the in vitro effects of CHK1 inhibitory compounds, an ELISA assay can be designed to monitor the abrogation of DNA damage-induced checkpoint control. The assay can be based on the trapping and detection of mitotic cells following DNA damage-induced arrest.
CA-46 (lymphoma) cells can be treated with a DNA damaging agent, such as camptothecin (Sigma), at 50 nM for 8 hours to induce DNA damage. The control compound or CHK1 inhibitor can be then added at increasing concentrations with Nocodazole (Sigma) at 0.1 μg/ml and plates can be incubated for 16 hours. Control cells, where only CHK1 inhibitors can be added, can be prepared as well to assure that the inhibitors alone have no effect on the cell cycle. The cells can be then harvested, washed with PBS, and crude acid extraction can be performed. Pellets can be resuspended in 80 μl of Acid Extraction Buffer (10 mM Hepes pH 7.9, 1.5 mM MgCl2, 10 mM KCl, 0.5 mM DTT, 1.5 mM PMSF, 0.4N sulfuric acid), vortexed briefly, and incubated for 30 minutes on ice. Samples can be then centrifuged and 75 μl of the supernatant can be transferred to a 96 well flat-bottom plate (VWR 3596). Next 15 μl Neutralizing Cocktail (# of samples×(10 μl 10N NaOH+5 μl 1M Tris Base) can be added to each well, and after mixing, 5 μl of this can be transferred to another 96 well plate with 100 μl 50 mM Tris base (pH 9.6) in each well. Samples can be dried overnight. The wells can be then washed with 200 μl ELISA wash buffer (PBS with 20 mM Tris pH 7.5, 0.05% Tween 20) 5 times and blocked with 200 μl blocking buffer (PBS with 20 mM Tris pH 7.5, 0.05% Tween 20, 3.5% Dry milk, 1.5% BSA. pH to 7.5 after preparation) for 1 hour at room temperature. Following wash and block, anti-phospho Histone H3 antibodies (Upstate USA, Inc., rabbit polyclonal) can be added at 0.5 μg/ml in block (100 μl per well) and incubated for 2 hours at room temperature. Wells can be washed again to remove unbound primary antibody and 100 μl alkaline phosphatase conjugated secondary antibodies at 0.3 mg/ml (Pierce, goat anti-rabbit IgG ([…]+L)) in block can be added for 1 hour at room temp. Wells can be washed 5 times to remove unbound secondary antibody, and washed again 3 times with PBS alone to remove detergents. Then 100 μl alkaline phosphatase substrate (Pierce 1-Step pNPP) can be added to wells. Plates can be protected from light and incubated at room temp for 1 hour. The OD can be read on Molecular Devices Vmax Kinetic Microplate Reader at 405 nm. The ratio of the OD (optical density) of a compound treated sample to the Nocodazole only treated sample (about 100% mitotic or abrogation) can be expressed in a percentage, and quantifies the percent abrogation of the checkpoint. The concentration at which a compound causes 50% abrogation of the checkpoint can be called the EC50. The raw OD values can be graphed in Excel, and an EC50 value can be generated using Kaleidograph software. Strong signal results from Nocodazole only treated cells, and equals 100% mitosis in this assay. Camptothecin+Nocodazole treated control samples have low signal, signifying no mitosis and therefore, no checkpoint abrogation. When potent CHK1 inhibitors are added to Camptothecin treated cells with Nocodazole, a high signal can be generated (generally in a dose dependent manner), due to the checkpoint abrogation activity caused by the combination treatment.

Row | Compound | Ki [1] | EC50 [2] | percent abrogation of the checkpoint ([2]; @ 0.5 μM) | further results
1 | N#Cc1cccc(Nc2cc(-c3ccc(-c4ccc(O)cc4O)cc3)n[nH]2)c1 [Example 1, 3-{[3-(2′,4′-Dihydroxy-1,1′-biphenyl-4-yl)-1H-pyrazol-5-yl]amino}benzonitrile] | 1 to 10 nM | – | 7% @ 0.5 μM | –
2 | N#Cc1ccc(Nc2cc(-c3ccc(-c4ccc(O)cc4O)cc3)n[nH]2)cc1 [Example 2, 4-{[3-(2′,4′-Dihydroxy-1,1′-biphenyl-4-yl)-1H-pyrazol-5-yl]amino}benzonitrile] | 1 to 10 nM | – | – | percent abrogation of the checkpoint ([2]; @ 1 μM): 1% @ 1 μM
3 | Oc1ccc(-c2ccc(-c3cc(Nc4cccc(CNC5CC5)c4)n[nH]3)cc2)c(O)c1 [Example 3, 4′-[5-(3-Cyclopropylaminomethyl-phenylamino)-2H-pyrazol-3-yl]-biphenyl-2,4-diol acetate] | – | 900 nM | – | –
4 | Oc1ccc(-c2ccc(-c3cc(Nc4ccc(CNC5CC5)cc4)n[nH]3)cc2)c(O)c1 [Example 4, 4′-[5-(4-Cyclopropylaminomethyl-phenylamino)-2H-pyrazol-3-yl]-biphenyl-2,4-diol acetate] | – | 60 nM | – | –
5 | Cc1cc(O)cc(O)c1-c1ccc(-c2cc(Nc3ccc(CNC(C)C)cc3)n[nH]2)cc1 [Example 7] | – | 380 nM | – | –
6 | Oc1cc(O)c(-c2ccc(-c3cc(Nc4ccc(CNC5CC5)cc4)n[nH]3)cc2)c(Cl)c1 [Example 8, 4′-[5-(4-Cyclopropylaminomethyl-phenylamino)-2H-pyrazol-3-yl]-biphenyl-6-chloro-2,4-diol acetate] | – | 150 nM | – | –
7 | Oc1cc(O)c(-c2ccc(-c3cc(Nc4ccc(CNC5CC5)cc4)n[nH]3)cc2)c(F)c1 [Example 9, 4′-[5-({4-[(cyclopropylamino)methyl]phenyl}amino)-1H-pyrazol-3-yl]-6-fluoro-1,1′-biphenyl-2,4-diol] | 1 to 10 nM | 88 nM | – | –
8 | Oc1ccc(-c2ccc(-c3cc(Nc4ccc(CNCC5CC5)cc4)n[nH]3)cc2)c(O)c1 [Example 10, 4′-[5-(4-Cyclopropylmethylaminomethyl-phenylamino)-2H-pyrazol-3-yl-]-biphenyl-2,4-diol acetate] | – | 75 nM | – | –
9 | Oc1ccc(-c2ccc(-c3cc(Nc4ncccn4)n[nH]3)cc2)c(O)c1 [Example 11, N-[3-(2′,4′-dihydoxy-1,1′-biphenyl-4-yl)-1H-pyrazol-5-yl]pyrimidin-2-amine] | 1 to 10 nM | – | – | –
10 | OCc1ccc(Nc2cc(-c3ccc(-c4ccc(O)cc4O)cc3)[nH]n2)cn1 [Example 12, 4′-[5-(6-Hydroxymethyl-pyridin-3-ylamino)-2H-pyrazol-3-yl]-biphenyl-2,4-diol] | – | – | 5% @ 0.5 μM | –
11 | OCc1cc(Nc2cc(-c3ccc(-c4ccc(O)cc4O)cc3)[nH]n2)ccn1 [Example 13, 4′-[5-(2-Hydroxymethyl-pyridin-4-ylamino)-2H-pyrazol-3-yl]-biphenyl-2,4-diol acetate] | – | – | 0% @ 0.5 μM | –
12 | Oc1ccc(-c2ccc(-c3cc(Nc4ccccn4)[nH]n3)cc2)c(O)c1 [Example 17, N-[5-(2′,4′-Dihydroxy-1,1′-biphenyl-4-yl)-1H-pyrazol-3-yl]pyridin-2-amine] | – | – | 16% @ 0.5 μM | –
13 | Oc1ccc(-c2ccc(-c3cc(Nc4cncs4)[nH]n3)cc2)c(O)c1 [Example 20, 4′-[5-(1,3-thiazol-5-ylamino)-1H-pyrazol-3-yl]-1,1′-biphenyl-2,4-diol] | – | – | 10% @ 0.5 μM | –

Further lines, with some results ahead:

Row | Ki [1] | EC50 [2] | Compound | percent abrogation of the checkpoint ([2]; @ 0.5 μM) | further results
14 | 1 to 10 nM | 160 nM | Oc1ccc(-c2ccc(-c3cc(Nc4ccc(CNC5CCCC5)nc4)n[nH]3)cc2)c(O)c1 [Example 14, 4′-[5-({6-[(cyclopentylamino)methyl]pyridin-3-yl}amino)-1H-pyrazol-3-yl]-1,1′-biphenyl-2,4-diol] | – | –
15 | 1 to 10 nM | 380 nM | CN(C)Cc1ccc(Nc2cc(-c3ccc(-c4ccc(O)cc4O)cc3)[nH]n2)cn1 [Example 15, 4′-[5-({6-[(dimethylamino)methyl]pyridin-3-yl}amino)-1H-pyrazol-3-yl]-1,1′-biphenyl-2,4-diol] | – | –
16 | 1 to 10 nM | – | CNC(=S)c1ccc(Nc2cc(-c3ccc(-c4ccc(O)cc4O)cc3)n[nH]2)cn1 [Example 16, 5-[5-(2′,4′-Dihydroxy-biphenyl-4-yl)-2H-Pyrazol-3-ylamino]-pyridine-2-carbothioic acid methylamide] | 10% @ 0.5 μM | –
17 | – | 540 nM | Oc1ccc(-c2ccc(-c3cc(Nc4cccnc4)[nH]n3)cc2)c(O)c1 [Example 18, N-[5-(2′,4′-Dihydroxy-1,1′-biphenyl-4-yl)-1H-pyrazol-3-yl]pyridin-3-amine] | – | –
18 | 1 to 10 nM | – | Oc1ccc(-c2ccc(-c3cc(Nc4ccncc4)[nH]n3)cc2)c(O)c1 [Example 19, 4′-[5-(pyridin-4-ylamino)-1H-pyrazol-3-yl]-1,1′-biphenyl-2,4-diol] | 14% @ 0.5 μM | –
19 | – | 500 nM | Oc1ccc(-c2ccc(-c3cc(Nc4ccccc4)n[nH]3)cc2)c(O)c1 [Example 21, 4′-(3-anilino-1H-pyrazol-5-yl)-1,1′-biphenyl-2,4-diol] | – | –
20 | – | 60 nM | CCC(C)NCc1ccc(Nc2cc(-c3ccc(-c4ccc(O)cc4O)cc3)[nH]n2)cc1 (stereo not shown) [Example 22] | – | –
21 | 1 to 10 nM | 165 nM | Oc1ccc(-c2ccc(-c3cc(Nc4ccc(CNCC5CC5)nc4)[nH]n3)cc2)c(O)c1 [Example 23, 4′-{5-[(6-{[(cyclopropylmethyl)amino]methyl}pyridin-3-yl)amino]-1H-pyrazol-3-yl}-1,1′-biphenyl-2,4-diol] | – | –
22 | – | 560 nM | CC(C)NCc1ccc(Nc2cc(-c3ccc(-c4ccc(O)cc4O)cc3)n[nH]2)cn1 [Example 25, 4′-[5-({6-[(isopropylamino)methyl]pyridin-3-yl}amino)-1H-pyrazol-3-yl]-1,1′-biphenyl-2,4-diol] | – | –
23 | – | 560 nM | CCNCc1ccc(Nc2cc(-c3ccc(-c4ccc(O)cc4O)cc3)[nH]n2)cn1 [Example 26, -[5-({6-[(ethylamino)methyl]pyridin-3-yl}amino)-1H-pyrazol-3-yl]-1,1′-biphenyl-2,4-diol] | – | –
